pIC50: −log10 of the molar value.

For one test, the target named is T1, KSP motor domain (Homo sapiens, UniProt P52732).
T1 sequence (P52732 18-359 limits assumed): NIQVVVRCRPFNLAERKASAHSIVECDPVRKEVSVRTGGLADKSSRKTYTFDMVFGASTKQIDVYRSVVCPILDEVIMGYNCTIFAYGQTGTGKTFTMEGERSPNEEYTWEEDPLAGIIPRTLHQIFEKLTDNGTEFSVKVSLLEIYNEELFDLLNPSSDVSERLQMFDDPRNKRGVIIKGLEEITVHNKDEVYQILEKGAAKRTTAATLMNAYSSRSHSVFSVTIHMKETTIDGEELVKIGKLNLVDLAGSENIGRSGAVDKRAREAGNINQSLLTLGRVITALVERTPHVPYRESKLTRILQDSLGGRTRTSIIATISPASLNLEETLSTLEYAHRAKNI
Nature of the test: biochemical. Conditions: IC50 (nM), KSP inhibitory activity, end-point assay; class symbols (Table 1).
In turn, `CCOC(=O)c1cc2cc3c(nc2s1)CCC([Si](C)(C)C)C3` (centres unmarked) [Example 188, Ethyl 5,6,7,8-Tetrahydro-6-(Trimethylsilyl)thieno[2,3b]quinoline-2-Carboxylate] registered an IC50 greater than 10000 nM. `C[Si](C)(C)C1CCc2nc3sc(C(N)=O)cc3cc2C1` (single isomer, unassigned) [Example 189, 5,6,8-Tetrahydro-6-(Trimethylsilyl)thieno[2,3-b]quinoline-2-Carboxamide] displayed an IC50 of less than 100 nM.

Staying with this test, now noted: IC50 (nM), exact IC50 values, end-point assay (Table 2).
On to `C[Si](C)(C)C1CCc2nc3sc(C(N)=O)cc3cc2C1` (single isomer, unassigned) [Example 189, 5,6,8-Tetrahydro-6-(Trimethylsilyl)thieno[2,3-b]quinoline-2-Carboxamide], for which the IC50 worked out at 50 nM.

The same test, now with this note: KSP inhibitory activity, end-point assay; class symbols (Table 1).
With `CC(C)(C)C1CCc2nc3sc(C(=O)NCC(N)=O)cc3cc2C1` (centres unmarked) [Example 81], the “IC50 (nM)” value is given as “A/B”.

The test is the same for the next values; noted with them: KSP inhibitory activity, end-point assay; class symbols (Table 1); read-out: IC50.
In the case of `CCC(C(C)C)C1CCc2nc3sc(C#N)c(N)c3cc2C1` (centres unmarked) [Example 28], the negative logarithm of the IC50 (pIC50) was 6.00 to 7.00. For the compound `CC(C)=C/C=C1\CCc2nc3sc(C#N)c(N)c3cc2C1` [Example 36], the pIC50 is less than 5.00.

Regarding `CC(C)(C)[C@@H]1CCc2nc3sc(C(=O)N[C@H](CN)c4ccc(NC(=O)c5cocn5)cc4)cc3cc2C1` [Example 271], the pIC50 was greater than 7.00. In the case of `CC1(C)CCc2nc3sc(C#N)c(N)c3cc2C1` [Example 47], the pIC50 is less than 5.00. The same measure, in the same setting: the figure for `CC(C)(C)[C@@H]1CCc2nc3sc(C(=O)N[C@H](CN)c4cccc(NC(=O)c5nscc5N)c4)cc3cc2C1` [Example 254] is 6.00 to 7.00; for `COC(=O)[C@H]1CCCCN1C(=O)c1cc2cc3c(nc2s1)CCC(C(C)(C)C)C3` (some centres unmarked) [Example 90] it is less than 5.00.

Consider `CC(C)(C)C1CCc2nc3sc(C(=O)N[C@H](CN)c4cccc([N+](=O)[O-])c4)cc3cc2C1` (some centres unmarked) [Example 214], for which the pIC50 is greater than 7.00. For `Cn1ccc(C(=O)Nc2cccc([C@@H](CN)NC(=O)c3cc4cc5c(nc4s3)CC[C@@H](C(C)(C)C)C5)c2)n1` [Example 239], the pIC50 was greater than 7.00.

Consider `COCc1cc2cc3c(nc2s1)CCC(C(C)(C)C)C3` (centres unmarked) [Example 146], for which the negative-log IC50 (pIC50) was 5.00 to 6.00. The same measure, in the same setting: the figure for `CC(C)(C)C1CCc2nc3sc(C(=O)NC(CNCCO)c4cccc(NC(=O)c5ccco5)c4)cc3cc2C1` (centres unmarked) [Example 264, 6-tert-butyl-5,6,7,8-tetrahydrothieno[2,3-b]quinoline-2-carboxylic acid [1-{3-[(furan-2-carbonyl)amino]phenyl}-2-(2-hydroxyethylamino)ethyl]amide] is greater than 7.00; for `CC(C)C1Cc2cc3cc(C(N)=O)sc3nc2CC1C` (centres unmarked) [Example 209, 6-isopropyl-7-methyl-5,6,7,8-tetrahydro-thieno[2,3,-b]quinoline-2-carboxylic acid amide] it is 6.00 to 7.00; for `CC(C)(C)[C@@H]1CCc2nc3sc(C(=O)N[C@H](CN)c4cccc(NC(=O)c5cnn[nH]5)c4)cc3cc2C1` [Example 253] it is 6.00 to 7.00.

Regarding `CC(C)(C)C1CCc2nc3sc(C(=O)N[C@@H]4CCC[C@H]4O)cc3cc2C1` (some centres unmarked) [Example 85], the negative-log IC50 (pIC50) was 5.00 to 6.00. The same measure, in the same setting: the figure for `CC(C)(C)C1CCc2nc3sc(CO)cc3cc2C1` (centres unmarked) [Example 144] is greater than 7.00; for `CC(C)(C)C1CCc2nc3sc(C(N)=O)cc3cc2C1` (single isomer, unassigned; (-)) [Example 67, (−)-6-(1,1-dimethylethyl)-5,6,7,8-tetrahydrothieno[2,3-b]quinoline-2-carboxamide] it is 6.00 to 7.00. For the compound `CC(C)(C)C1CCc2nc3sc(CC#N)cc3cc2C1` (centres unmarked) [Example 148], the pIC50 is 5.00 to 6.00.

For `Cc1cc(C(=O)Nc2ccc([C@@H](CN)NC(=O)c3cc4cc5c(nc4s3)CC[C@@H](C(C)(C)C)C5)cc2)no1` [Example 274], the negative logarithm of the IC50 (pIC50) is greater than 7.00. Turning to `Cc1cccc([C@@H](CN)NC(=O)c2cc3cc4c(nc3s2)CCC(C(C)(C)C)C4)c1` (some centres unmarked) [Example 220], the negative-log IC50 (pIC50) was greater than 7.00. As to `CC(C)(C)C1CCc2nc3sc(C(=O)O)cc3cc2C1` (centres unmarked) [Example 73, 6-tert-Butyl-5,6,7,8-tetrahydrothieno[2,3-b]quinoline-2-carboxylic acid], the pIC50 is less than 5.00. Still for that read-out and setting: under `CC(O)CNC(=O)c1cc2cc3c(nc2s1)CCC(C(C)(C)C)C3` (centres unmarked) [Example 103] stands 5.00 to 6.00; under `CC(C)(C)C1CCc2nc3sc(-c4ncc(CN)o4)cc3cc2C1` (centres unmarked) [Example 186, [2-(6-tert-Butyl-5,6,7,8-tetrahydrothieno[2,3-b]quinolin-2-yl)oxazol-5-yl]methylamine], 5.00 to 6.00.

Turning to `CCCC1CCCc2cc3c(N)c(C#N)sc3nc21` (centres unmarked) [Example 52], the negative logarithm of the IC50 (pIC50) was less than 5.00. The same measure, in the same setting: under `CC(C)(C)[C@@H]1CCc2nc3sc(C(=O)N[C@H](CNCCO)c4cccc(NC(=O)c5ncco5)c4)cc3cc2C1` [Example 265, 6-tert-Butyl-5,6,7,8-tetrahydrothieno[2,3-b]quinoline-2-carboxylic acid (2-(2-hydroxy-ethylamino)-1-{3-[(oxazole-2-carbonyl)amino]phenyl}ethyl)amide] stands greater than 7.00; under `CC(C)CC(C)(C)C1CCc2nc3sc(C#N)c(N)c3cc2C1` (centres unmarked) [Example 8], less than 5.00; under `CC(C)(C)C1CCc2nc3sc(C(=O)Nc4cccc(N)c4)cc3cc2C1` (centres unmarked) [Example 226D], 6.00 to 7.00. Turning to `CC1Cc2nc3sc(C#N)c(N)c3cc2CC1C(C)(C)C` (centres unmarked) [Example 202, 3-Amino-6-tert-butyl-7-methyl-5,6,7,8-tetrahydrothieno[2,3-b]quinoline-2-carbonitrile], the pIC50 was 6.00 to 7.00.

In the case of `CCC(C)(C)C1CCc2nc3sc(-c4nn[nH]n4)cc3cc2C1` (centres unmarked) [Example 72], the negative logarithm of the IC50 (pIC50) was 5.00 to 6.00.

With `CC(C)(C)C1CCc2nc3sc(C(=O)Nc4ccc(O)c(N)c4)cc3cc2C1` (centres unmarked) [Example 226H], the negative logarithm of the IC50 (pIC50) is 6.00 to 7.00. On the same count and under the same terms, the figure for `CC(C)(C)[C@@H]1CCc2nc3sc(C(=O)N[C@H](CN)c4cccc(NCc5ccncc5)c4)cc3cc2C1` [Example 281, 6(R)-tert-Butyl-5,6,7,8,-tetrahydro-thieno[2,3-b]quinoline-2-carboxylic acid (2(S)-amino-1-{3-[(pyridin-4-ylmethyl)-amino]-phenyl}-ethyl)-amide] is greater than 7.00. With `CC(C)(C)C1CCc2cc3cc(C#N)sc3nc2CC1` (centres unmarked) [Example 61], the negative-log IC50 (pIC50) is 5.00 to 6.00. `CCC(C)(C)C1CCc2nc3sc(C#N)c(N)c3cc2C1` (centres unmarked) [Example 12]: the negative-log IC50 (pIC50) was greater than 7.00.

Turning to `CC(C)(C)C1CCc2nc3sc(C(=O)N[C@H](CN)c4cccc(-c5ccccc5)c4)cc3cc2C1` (stereo partly drawn) [Example 211, 6-tert-butyl-5,6,7,8-tetrahydro-thieno[2,3-b]quinoline-2-carboxylic acid [(1S)-2-amino-1-biphenyl-3-yl-ethyl)-amide], the pIC50 is 6.00 to 7.00. `CC(C)(C)C1CCc2nc3sc(S(C)(=O)=O)cc3cc2C1` (centres unmarked) [Example 122, 6-tert-Butyl-2-methanesulfonyl-5,6,7,8-tetrahydrothieno[2,3-b]quinoline]: the negative-log IC50 (pIC50) was 5.00 to 6.00.

Consider `CC(C)(C)C1CCc2nc3sc(C(=O)N[C@H](CN)c4cccc(Br)c4)cc3cc2C1` (stereo partly drawn) [Example 210, 6-tert-butyl-5,6,7,8-tetrahydro-thieno[2,3-b]quinoline-2-carboxylic acid [(1S)-2-amino-1-(3-bromo-phenyl)-ethyl]-amide], for which the pIC50 was 6.00 to 7.00. Same read-out and setting: under `CC1Cc2nc3sc(C(N)=O)cc3cc2CC1C(C)(C)C` (centres unmarked) [Example 204, 6-tert-Butyl-7-methyl-5,6,7,8-tetrahydro-thieno[2,3,-b]quinoline-2-carboxylic acid amide] stands 6.00 to 7.00; under `CC(C)(C)OC(=O)N1CCc2nc3sc(C#N)c(N)c3cc2C1` [Example 42], less than 5.00.

Regarding `Cn1cncc1C(=O)Nc1cccc([C@@H](CN)NC(=O)c2cc3cc4c(nc3s2)CC[C@@H](C(C)(C)C)C4)c1` [Example 251], the pIC50 is greater than 7.00. `CC(C)(C)C1CCc2nc3sc(C(=O)NCCN4CCCCC4)cc3cc2C1` (centres unmarked) [Example 198, 6-(1,1-Dimethylethyl)-5,6,7,8-Tetrahydro-N-[2-(1-Piperidinyl)ethyl]thieno[2,3-b]quinoline-2-Carboxamide]: the negative-log IC50 (pIC50) is 5.00 to 6.00. For the compound `CC(C)(C)C1CCc2nc3sc(C#N)c(Br)c3cc2C1` (centres unmarked) [Example 112, 6-tert-Butyl-3-bromo-5,6,7,8-tetrahydrothieno[2,3-b]quinoline-2-carbonitrile], the negative-log IC50 (pIC50) is less than 5.00. Same read-out and setting: the figure for `N#Cc1sc2nc3c(cc2c1N)CC(C12CC4CC(CC(C4)C1)C2)CC3` (centres unmarked) [Example 4] is less than 5.00.

As for `CC(C)[C@@H](CO)NC(=O)c1cc2cc3c(nc2s1)CCC(C(C)(C)C)C3` (stereo partly drawn) [Example 157, 6-tert-Butyl-5,6,7,8-tetrahydrothieno[2,3-b]quinoline-2-carboxylic acid [(1S)-1-hydroxymethyl-2-methyl-propyl]amide], the pIC50 is less than 5.00. Still for that read-out and setting: the figure for `CC(C)(C)C1CCc2nc3sc(C#N)cc3cc2C1` (single isomer, unassigned) [Example 63] is greater than 7.00; for `CC(C)(C)[C@@H]1CCc2nc3sc(C(=O)N[C@H](CN)c4cccc(NCc5cccnc5)c4)cc3cc2C1` [Example 282] it is greater than 7.00; for `CCC(C)(C)C1C=Cc2nc3sc(C(N)=O)cc3cc2C1` (centres unmarked) [Example 114] it is greater than 7.00. Take `CC(C)(C)C1CCc2nc3sc(C(=O)N[C@@H](Cc4ccc(O)cc4)C(=N)N)cc3cc2C1` (some centres unmarked) [Example 174]: the pIC50 is 5.00 to 6.00. The same measure, in the same setting: the figure for `CC(C)(C)C1CCc2nc3sc(C(=O)N4CCNCC4)cc3cc2C1` (centres unmarked) [Example 95] is less than 5.00.

The same test, now with this note: exact IC50 values, end-point assay (Table 2); read-out: IC50.
For the compound `CC(C)(C)C1CCc2nc3sc(CO)cc3cc2C1` (centres unmarked) [Example 144], the negative logarithm of the IC50 (pIC50) was 7.22. With `CC(C)(C)C1CCc2nc3sc(C#N)cc3cc2C1` (single isomer, unassigned) [Example 63], the pIC50 is 7.40.

The same test, now with this note: number printed in brackets under a borderline class (A/B, B/C) in Table 1 of b1103; read-out: IC50.
With `CC(C)(C)C1CCc2nc3sc(C(=O)NCC(N)=O)cc3cc2C1` (centres unmarked) [Example 81], the pIC50 was 7.00.

By IC50 is commonly meant the point on the concentration scale where inhibition reaches its midpoint. Higher therefore signals a need for much substance. Usually pIC50 stands for the negative decadic logarithm of the IC50, by convention in mol/L.

For the origin of these results see US20060247320A1, “Compounds for inhibiting KSP kinesin activity” (priority 2005, published 2006).
